Data on one compound can be found in patent publication US12504393B2, “Method and system for determining the progesterone-associated physiological state of lactating cows” (Yissum Research Development Company of the Hebrew …, priority 2020, dated 2025).

“Also recorded” adds a separate entry of the source.

Holding throughout (type): cell-based, cow
Test [1] deals with mammary epithelial cells. Put plainly: Cellular triglyceride and phospholipid content and composition by HPLC-ELSD after 24 h progesterone. The protocol: To examine the effect of progesterone on MFG formation, secretion and size, the culture medium was supplemented with very low-density lipoprotein (VLDL) and progesterone at different concentrations (0, 1, 5 and 20 ng/ml). Progesterone concentrations were based on those found in the plasma during the luteal and follicular phases in vivo. After 24 h, cells were either fixed for lipid droplet size analysis (detailed below (or harvested with trypsin (0.05% w/v), sedimented by centrifugation, and washed with 0.9 gr/L NaCl.
For lipid extraction and analysis, 150,000 MEC were plated in a 60-mm plastic dish. For Nile red fluorescence staining, 50,000 MEC were plated in a 6-well plate on glass cover slips. After 24 h incubation, the culture medium was replaced with DMEM/F12 without serum, containing 0.15% (w/v) free fatty acids-free BSA and insulin (1 μg/ml), hydrocortisone (0.5 μg/ml) and prolactin (1 μg/ml). Cells were incubated for 48 h to induce milk lipid and protein synthesis.
(§1) Lipids were extracted by the Folch protocol. Briefly, each cell sample was incubated for 1 h with “Folch mixture” (chloroform:methanol, […] volumetric ratio). The organic phase was separated by addition of double-distilled water (DDW) and overnight incubation at 4° C. The upper phase was then removed, and the lower phase filtered through glass wool. The lower phase was evaporated under nitrogen and then dissolved in chloroform:methanol (3:97). Samples were kept at −20° C. until further analysis.
High-pressure liquid chromatography (HPLC) was performed in an HPLC 1200 (Agilent Technology) equipped with evaporative light-scattering detector. Tg, cholesterol and PL were identified using external standards (Sigma Aldrich). Quantification was performed against external standard curves and expressed as μg/106 live cells or as weight % of the total PL (μg) in the sample. The number of live cells was determined with a hemocytometer after Trypan blue staining.

The test system of test [2] is mammary epithelial cells. Put plainly: Increasing or decreasing progesterone concentrations with or without VLDL in the culture medium: lipid droplet number and cellular phenotype. How it is done: To determine whether the effect of progesterone on lipid droplet size is mediated by the presence of VLDL, a b-factorial experiment was performed. MEC were cultured with increasing or decreasing progesterone concentrations in the presence or absence of VLDL in the culture medium. This study was aimed to provide indirect evidence of lipoprotein lipase (LPL) activity, acting on VLDL and providing the MEC with exogenous, preformed fatty acids. After 48 h of incubation, cells were fixed and stained with Nile red and intracellular lipid droplet size was determined. Cells were grown on glass cover slips, washed three times with phosphate buffered saline (PBS) and fixed with 4% paraformaldehyde in PBS for 20 min at room temperature. Then the cells were washed four times with PBS, stained with Nile red (200 nM) and incubated for 15 min. Cover slips were then washed three times with PBS and stained with DAPI for 5 min. Cover slips were washed four more times with PBS and mounted on a slide with fluorescent mounting medium (Dako North America Inc., Carpinteria, CA). The slides were visualized under an Olympus BX40 fluorescence microscope equipped with an Olympus DP73 digital camera using CellSens Entry software (version 1.7, Olympus). Lipid droplet diameter was measured using ImageJ software (version 1.48, NIH, Bethesda, MD). Lipid droplet diameter was divided into three size categories: small (<1 μm), medium (1 μm<x<2 μm) and large (>2 μm).

Test [3] relates to mammary epithelial cells. The experiment in a line: Lipid droplet number and size in primary mammary epithelial cells exposed 48 h to increasing or decreasing progesterone concentrations. How it is done: The effect of progesterone concentration pattern during the estrous cycle on lipid droplet size was also tested. Primary mammary epithelial cells were exposed for 48 h to either increasing (0.75, 2.5 and 5 ng/ml) progesterone concentrations or decreasing (5, 2.5 and 0.75 ng/ml) progesterone concentrations. The concentrations were increased or decreased at specific times to reflect the progesterone pattern during the increasing and decreasing phases of the estrus cycle, i.e. the cells were exposed to increasing concentrations of 0.75, 2.5 and 5 ng/ml progesterone at 0, 17 and 28 h, respectively and cells were exposed to decreasing concentrations of 5, 2.5 and 0.75 ng/ml progesterone at 0, 28 and 34 h, respectively. Cells were then fixed and stained with nile-red. Four slides were prepared for each treatment and lipid droplets were counted and measured under fluorescence microscope. The experiment was repeated twice.
For the in-vitro study, primary culture of MEC was performed according to a protocol established described in [1]. Briefly, mammary tissue was collected from lactating cows in a commercial slaughterhouse and immediately transferred to ice-cold growth medium with 1000 U/ml penicillin, 1 mg/ml streptomycin, 2.5 μg/ml amphotericin mixture, and 0.02 mg/ml heparin. Mammary tissue was digested in medium with 1 mg/ml collagenase, 1 mg/ml hyaluronidase and 0.02 mg/ml heparin, for 3 h at 37° C. After incubation, the suspension was filtered through a metal mesh (250 μm). Sediments were treated with trypsin-EDTA solution and filtered through a 100-μm cell strainer (BD Falcon, Bedford, MA). Then, the cells were grown in plastic culture dishes with DMEM/F12 supplemented with 10% (w-/v) fetal bovine serum, 100 U/ml penicillin, 100 μg/ml streptomycin, 0.25 μg/ml amphotericin B, 1 μg/ml insulin and […] hydrocortisone. The medium was changed every 48 h.
To determine whether the absolute progesterone concentration or its pattern (i.e., increasing or decreasing) affects MFG, cells were treated for 48 h with increasing doses of progesterone: 0.75, 2.5 and 5 ng/ml. The culture medium was replaced after 11, 17, and 20 h, respectively, aimed to mimic the in-vivo luteal phase. The decreasing phase consisted of exposure to 5, 2.5 and 0.75 ng/ml progesterone. Culture medium was replaced after 8, 12 and 28 h, respectively, to mimic the follicular phase.
Cells were grown on glass cover slips, washed three times with phosphate buffered saline (PBS) and fixed with 4% paraformaldehyde in PBS for 20 min at room temperature. […] The slides were visualized under an Olympus BX40 fluorescence microscope equipped with an Olympus DP73 digital camera using CellSens Entry software (version 1.7, Olympus). Lipid droplet diameter was measured using ImageJ software (version 1.48, NIH, Bethesda, MD). […]

Test [4] concerns mammary epithelial cells. Put plainly: Fatty acid distribution between triglyceride and phospholipid fractions (TLC and gas chromatography) after 24 h progesterone. How it is done:
as §1
Lipid separation was performed by thin-layer chromatography and gas chromatography analysis. For the thin-layer chromatography, silica gel was spread on glass plates and activated at 105° C., 24 h before the analysis. After cooling, the cell samples, extracted by Folch protocol, were loaded into the plates along with triglyceride (Tg) and phospholipids (PL) standards. The plates were inserted into a tank with a mixture of petroleum ether, […] and acetic acid (8:2:1 volometric ratio) for 30 min, then sprayed with 0.05% v/v dichlorofluorescein in ethanol) and examined under UV light. The detected lipid segments were then separated from the plates into methylation mixture (5% v/v H2SO4 in methanol) for 1 h incubation at 65° C. Then, 1.5 ml petroleum-ether and 3 ml DDW were added to each sample. The upper phase was collected into a new vial and the organic solvent was evaporated with nitrogen. Then 100 μl petroleum-ether was added to each sample for fatty acid analysis in a gas chromatograph model 6890N, equipped with a flame-ionization detector and DB-23 capillary silica (0.25-μm film; Agilent Technology, Wilmington, DE). The analysis was performed according to a protocol established as described in [18]. Peaks were identified with Chemstation software (Agilent Technology). The concentrations of fatty acids are given as molar percentages of the total molar sum of the identified fatty acids. Fatty acids were classified according to chemical characteristics such as double bonds and carbon-chain length.

Test [5] deals with mammary epithelial cells. The experiment in a line: Lipid droplet number and size in primary mammary epithelial cells incubated 24 h with fixed progesterone concentrations (Nile red/DAPI fluorescence microscopy). The protocol: Epithelial cells were isolated for mammary biopsies according to the method described in [3]. Cells were incubated for 24 h with 0, 1, 5, and 20 ng/ml progesterone. Cells were then fixed with 4% paraformaldehyde and nucleus and lipid droplets were stained with Dapi and Nile red (Sigma Aldrich, Israel), respectively. Four slides were prepared for each treatment and were visualized with an Olympus BX40 fluorescence microscope equipped with an Olympus DP73 digital camera using CellSens Entry software version 1.7. The lipid droplets of 6-10 cells on each slide were counted and measured using ImageJ software. The experiment was repeated twice. For the in-vitro study, primary culture of MEC was performed according to a protocol established described in [1]. Briefly, mammary tissue was collected from lactating cows in a commercial slaughterhouse and immediately transferred to ice-cold growth medium with 1000 U/ml penicillin, 1 mg/ml streptomycin, 2.5 μg/ml amphotericin mixture, and 0.02 mg/ml heparin. Mammary tissue was digested in medium with 1 mg/ml collagenase, 1 mg/ml hyaluronidase and 0.02 mg/ml heparin, for 3 h at 37° C. After incubation, the suspension was filtered through a metal mesh (250 μm). Sediments were treated with trypsin-EDTA solution and filtered through a 100-μm cell strainer (BD Falcon, Bedford, MA). Then, the cells were grown in plastic culture dishes with DMEM/F12 supplemented with 10% (w-/v) fetal bovine serum, 100 U/ml penicillin, 100 μg/ml streptomycin, 0.25 μg/ml amphotericin B, 1 μg/ml insulin and […] hydrocortisone. The medium was changed every 48 h. To examine the effect of progesterone on MFG formation, secretion and size, the culture medium was supplemented with very low-density lipoprotein (VLDL) and progesterone at different concentrations (0, 1, 5 and 20 ng/ml). Progesterone concentrations were based on those found in the plasma during the luteal and follicular phases in vivo. After 24 h, cells were either fixed for lipid droplet size analysis (detailed below (or harvested with trypsin (0.05% w/v), sedimented by centrifugation, and washed with 0.9 gr/L NaCl. For lipid extraction and analysis, 150,000 MEC were plated in a 60-mm plastic dish. For Nile red fluorescence staining, 50,000 MEC were plated in a 6-well plate on glass cover slips. After 24 h incubation, the culture medium was replaced with DMEM/F12 without serum, containing 0.15% (w/v) free fatty acids-free BSA and insulin (1 μg/ml), hydrocortisone (0.5 μg/ml) and prolactin (1 μg/ml). Cells were incubated for 48 h to induce milk lipid and protein synthesis. Cells were grown on glass cover slips, washed three times with phosphate buffered saline (PBS) and fixed with 4% paraformaldehyde in PBS for 20 min at room temperature. Then the cells were washed four times with PBS, stained with Nile red (200 nM) and incubated for 15 min. Cover slips were then washed three times with PBS and stained with DAPI for 5 min. Cover slips were washed four more times with PBS and mounted on a slide with fluorescent mounting medium (Dako North America Inc., Carpinteria, CA). The slides were visualized under an Olympus BX40 fluorescence microscope equipped with an Olympus DP73 digital camera using CellSens Entry software (version 1.7, Olympus). Lipid droplet diameter was measured using ImageJ software (version 1.48, NIH, Bethesda, MD). Lipid droplet diameter was divided into three size categories: small (<1 μm), medium (1 μm<x<2 μm) and large (>2 μm).

Turning to `CC(=O)[C@H]1CC[C@H]2[C@@H]3CCC4=CC(=O)CC[C@]4(C)[C@H]3CC[C@]12C` [progesterone], in the test on mammary epithelial cells [1] (0, 1, 5 and 20 ng/ml progesterone, 24 h), the “membrane PL composition (PI, PE, PS, PC, SM)” value was “did not affect”. The “concentration of Tg (cellular triglyceride content)” value in the test on mammary epithelial cells [1] (0, 1, 5 and 20 ng/ml progesterone, 24 h, FIG. 17A) was “not affected by progesterone”. In addition, in the test on mammary epithelial cells [1] (1 ng/ml compared to 0, 5 and 20 ng/ml progesterone, 24 h, P<0.05), the “increase in concentration of the measured PL” value was “approximately 1.3 fold”. Moreover, the PL amount result in the test on mammary epithelial cells [1] (5 ng/ml progesterone, 24 h, P<0.05) is “tended to decrease”. For the same compound, the “PC concentration (elevated)” value in the test with mammary epithelial cells [1] (progesterone 24 h, apparently the 1 ng/ml treatment, P<0.05) turned out to be 20 μg/106 cells. Besides, the “differences in lipid droplet number and cellular phenotype between increasing and decreasing progesterone” value in the test with mammary epithelial cells [2] (absence of VLDL) is reported as “no differences were found”. For the same compound, the “increase in MEC with large lipid droplets (>1 μm)” value in the test with mammary epithelial cells [2] (decreasing progesterone concentration model with VLDL, P<0.0001) turned out to be 4 fold. Moreover, the “increase in proportion of MEC with small lipid droplets (<1 μm)” value in the test with mammary epithelial cells [2] (increasing progesterone concentration model with VLDL) is recorded as 2.4 fold. In addition, the “average number of lipid droplets per field” value in the test with mammary epithelial cells [2] (increasing progesterone concentration with VLDL vs other treatments, FIG. 20B, P<0.0001) is on record as “Highest number of lipid droplets”. In addition, the “proportion of large lipid droplets (>2 μm) of the total number of lipid droplets” value with mammary epithelial cells [3] (decreasing ('down') compared to increasing ('up') progesterone concentrations, 48 h, FIG. 6, P=0.03) is on record as 2 fold. Also, in the test on mammary epithelial cells [3] (increasing (0.75, 2.5, 5 ng/ml, 'up') relative to decreasing (5, 2.5, 0.75 ng/ml, 'down') progesterone, 48 h, FIG. 5, P<0.0001), the “increase in the number of lipid droplets” value worked out at 5.5 fold. The “increase in the large lipid droplets” value with mammary epithelial cells [3] (increasing progesterone concentration 'compared to the increasing progesterone pattern' (so in the source), P<0.0001) is recorded as 3 fold. For the same compound, in the test on mammary epithelial cells [3] (increasing vs decreasing progesterone, FIG. 19C), the “large lipid droplet phenotype (cells with droplets x>1 μm)” value is “only visualized in cells treated with increasing progesterone levels”. For the same compound, the “distribution of stearic acid (C18:0) between Tg and PL” value with mammary epithelial cells [4] (1 ng/ml progesterone) is given as “higher in the PL compartment; also recorded: found primarily in the membrane”. In the test on mammary epithelial cells [4] (5 ng/ml progesterone), the “distribution of stearic acid between Tg and membrane” value is recorded as “mostly incorporated into the Tg”. For the same compound, the “concentration of lignoceric acid (C24:0), Tg vs PL” value with mammary epithelial cells [4] (5 ng/ml progesterone, P<0.05) is on record as “higher in the PL compartment”. Besides, the “proportion of large droplets (>1 μm)” value in the test with mammary epithelial cells [5] (0, 1 or 20 ng/ml progesterone, 24 h) is listed as not above 20%. The “proportion of droplets larger than 1 μm” value with mammary epithelial cells [5] (5 ng/ml progesterone, 24 h) was “over 40%”. Also, the “number of lipid droplets” value is “did not differ from the control” with mammary epithelial cells [5] (5 ng/ml progesterone, 24 h, vs control) and 3.5 fold with mammary epithelial cells [5] (1 or 20 ng/ml progesterone, 24 h, vs control (no progesterone), P<0.0001). Also, the “rate of large droplets (>1 μm)” value with mammary epithelial cells [5] (20 ng/ml progesterone, 24 h) is listed as 6.5%. In the test with mammary epithelial cells [5] (1 and 5 ng/ml progesterone, 24 h, relative to control (0 ng/ml), FIG. 3), the “number of large lipid droplets (>1 μm) per cell” value was “higher number of large lipid droplets”. Further, the “proportion of large lipid droplets (X≥1 μm)” value in the test on mammary epithelial cells [5] (1 and 5 ng/ml relative to 20 ng/ml progesterone, FIG. 4, P<0.0001) is reported as “higher”.
